Measurements as given in patent EP4201929A1, “QUINOXALINE THIOREDOXIN REDUCTASE INHIBITORS” (geneXplain GmbH, priority 2021, dated 2023).

How the values were obtained:
[1] = system: HCT116 p53-/- and A375p53-/- cells; assay: Growth suppression in wild type p53 versus p53-negative isogenic cells; assay type: cell-based; conditions: HCT116 vs HCT116 p53-/-; A375 vs A375p53-/-
Protocol: Cells were grown in 96-well plates at a density of 3000 cells per well with or without doxycycline and treated with compounds. After 48 hours of incubation the proliferative cell reagent resazurin (Thermo Fisher Scientific) was added to the cells. The degree of resazurin reduction, which reflects cell viability, was measured by microplate reader by monitoring the absorbance at 570 nm and 600 nm, according to the manufacturer.
Since p53 is a major inducer of apoptosis, including ROS-induced apoptosis, we tested whether p53 plays a role in growth suppression by 1d*HCl. We used wild type p53 HCT116 cells and their isogenic p53-negative cell line HCT116 p53-/-, as well as a pair of wild type p53 A375 and p53-negative A375p53-/- melanoma cells, generated using CRISPR-Cas9, as described previously [Zhou X, Singh M, Sanz Santos G, Guerlavais V, Carvajal LA, Aivado M, Zhan Y, Oliveira MMS, Westerberg LS, Annis DA, Johnsen JI, Selivanova G. Pharmacologic activation of p53 triggers viral mimicry response thereby abolishing tumor immune evasion and promoting anti-tumor immunity Cancer Discov. ([…]), 11(12), 3090-3105]. […] This allowed us to conclude that the tumor suppression is p53 -independent. […]

[2] = molecular target: GR (Homo sapiens, UniProt P00390); assay: GR enzymatic activity measurement in vitro; assay type: biochemical; design: purchased Sigma; conditions: recombinant purified enzyme in vitro
Chain of GR (P00390 44-522): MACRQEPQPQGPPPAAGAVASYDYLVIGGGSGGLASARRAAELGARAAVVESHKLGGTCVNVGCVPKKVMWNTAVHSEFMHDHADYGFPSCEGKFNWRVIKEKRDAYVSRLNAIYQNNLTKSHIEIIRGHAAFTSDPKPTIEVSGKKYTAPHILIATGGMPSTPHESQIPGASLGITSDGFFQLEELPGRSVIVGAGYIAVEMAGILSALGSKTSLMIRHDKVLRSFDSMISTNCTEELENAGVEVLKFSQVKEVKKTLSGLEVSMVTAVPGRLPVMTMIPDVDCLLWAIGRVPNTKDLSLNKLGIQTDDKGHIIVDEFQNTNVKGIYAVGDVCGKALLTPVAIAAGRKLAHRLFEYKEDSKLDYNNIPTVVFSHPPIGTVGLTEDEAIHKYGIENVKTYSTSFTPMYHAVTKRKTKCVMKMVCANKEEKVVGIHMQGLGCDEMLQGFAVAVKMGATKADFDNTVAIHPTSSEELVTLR
Protocol: (§1) TrxRl enzyme was recombinantly produced with high Sec contents in a specific Release Factor 1-depleted E. coli strain and purified as previously described (Arnér ESJ, Holmgren A, in Current Protocols in Toxicology, Maines M, Costa L, Reed D, Sassa S, Eds. (John Wiley & Sons, Inc., New York, 2000), pp. 7.4.1-7.4.14). TrxRl and GSR (Sigma) recombinant enzyme assays were performed in a reaction buffer containing 50 mM Tris pH 7.5 with 2 mM EDTA and 0.1 mg/mL bovine serum albumin as described previously (Arnér ESJ, Holmgren A, in Current Protocols in Toxicology, Maines M, Costa L, Reed D, Sassa S, Eds. (John Wiley & Sons, Inc., New York, 2000), pp. 7.4.1-7.4.14). Briefly, assays were performed in triplicate using 96-well plates, with activity inferred from absorbance changes using a Spectra Max plate reader. Results of recombinant enzyme assays were normalized to DMSO and to no enzyme controls.
Glutathione reductase inhibition assay was performed according to (S. Busker, W. Qian, M. Haraldsson, B. Espinosa, L. Johansson, S. Attarha, I. Kolosenko, J. Liu, M. Dagnell, D. Grandér, E.S.J. Arnér, K. PokrovskajaTamm, B.D.G. Page. Irreversible TrxRl inhibitors block STAT3 activity and induce cancer cell death, Sci. Adv., 6 (2020), 10.1126/sciadv.aax7945). 5 or 10 µM compound was incubated with 175 µM GSH in TE buffer. […]

[3] = system: γH2AX; assay: DNA damage detection by Western blot (phosphorylated histone H2AX); assay type: cell-based; conditions: HCT116 and MCF7
Protocol: The extraction of total cell lysates and western blot were performed according to standard procedure. The antibodies used for immunoblotting were: p53 (sc-126, Santa Cruz Biotechnology), γH2AX (#07-164, Millipore), TrxRl 19A1 (AbFrontier). Anti-β-actin monoclonal antibody (Millipore) was used as loading control. The horseradish peroxidase-coupled secondary antibodies (Jackson ImmunoResearch) and SuperSignal™ West Dura Extended Duration Substrate detection system (Thermo Fischer Scientific), and images were visualized using ChemiDoc Imaging System (Bio-Rad).
The majority of chemotherapeutic drugs used currently in the clinic, are DNA damaging drugs. Induction of DNA damage is a very efficient way of elimination of cancer cells. Unfortunately, these drugs induce DNA damage also in normal cells, leading to severe side effects. We addressed the question whether 1d*HCl induces DNA damage. We tested this by detection of a hallmark of DNA damage, induction of phosphorylated histone H2AX, so called γH2AX. We used anti-yH2AX antibody to detect it in cells treated with 1d*HCl.

[4] = molecular target: T1, recombinant purified TrxRl (Homo sapiens, UniProt Q16881); assay: TrxR1 enzymatic activity measurement in vitro; assay type: biochemical; conditions: recombinant purified enzyme in vitro
T1 construct: made in house; host or cells: Release Factor 1-depleted E. coli strain
T1 sequence (Q16881 151-649): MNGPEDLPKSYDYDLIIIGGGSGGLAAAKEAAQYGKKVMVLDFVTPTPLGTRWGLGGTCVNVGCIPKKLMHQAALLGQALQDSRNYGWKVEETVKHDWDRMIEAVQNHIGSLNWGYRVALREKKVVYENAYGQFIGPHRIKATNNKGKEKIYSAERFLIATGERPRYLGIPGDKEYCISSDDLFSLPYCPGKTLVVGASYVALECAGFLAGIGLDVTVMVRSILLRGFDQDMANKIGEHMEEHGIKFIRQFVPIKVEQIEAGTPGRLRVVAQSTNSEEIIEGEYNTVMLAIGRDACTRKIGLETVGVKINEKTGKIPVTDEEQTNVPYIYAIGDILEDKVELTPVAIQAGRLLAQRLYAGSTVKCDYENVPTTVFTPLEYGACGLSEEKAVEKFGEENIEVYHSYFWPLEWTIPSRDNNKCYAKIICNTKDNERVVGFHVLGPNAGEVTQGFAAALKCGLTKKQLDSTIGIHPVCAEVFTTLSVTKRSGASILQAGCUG
Protocol: as §1
We used recombinant purified TrxRl and GR in an in vitro assay as described in methods section.

[5] = system: reactive oxygen species (ROS); assay: Oxidative stress measurement (DCFH-DA-based assay); assay type: cell-based
Protocol: Cells were treated with compounds and incubated 30 min with 10 µM DCF-DA in serum free medium. Afterward, cells were trypsinized, washed with PBS and fluorescence was analyzed by a FACSCalibur flow cytometer (BD Biosciences) using FL1-H channel.
To get insight into the mechanism of the anti-tumor activity of 1d*HCl, we tested the level of oxidative stress upon treatment. We measured the induction of reactive oxygen species (ROS), using 2'-7'-Dichlorodihydrofluorescein diacetate (DCFH-DA)-based assay. […] After 8h of treatment, the induction of reactive oxygen species (ROS) was much higher.

Cl.N#Cc1c(-c2cccnc2)[n+]([O-])c2cc(F)c(N3CCOCC3)cc2[n+]1[O-] [1d*HCl, 6-Fluoro-7-(morpholin-4-yl)-3-(pyridin-3-yl)quinoxaline-2-carbonitrile-1,4-dioxide hydrochloride]
growth suppression in the absence of p53 [1]: not affected in the absence of p53
GR activity [2]: did not inhibit GR activity
induction of γH2AX [3]: negligible
enzymatic activity of TrxRl [4]: efficiently inhibited the enzymatic activity of TrxRl in a dose- and time-dependent manner
DCF fluorescence (induction of reactive oxygen species) ([5]; 2h after treatment): significant increase in DCF fluorescence
induction of reactive oxygen species (ROS) ([5]; after 8h of treatment): much higher
